Measurements reported in patent US4833079A, “Process for producing 3,7-dihydroxytropolone and antitumor use thereof” (Bristol-Myers Company, priority 1986, dated 1989).
In brackets after ≈: the same amount, converted by molar mass. Read-outs that look alike come from different tables or passages of the source. Values belong to the compound of their own block, whether it stands above or below them.

Legend:
B16-F10 cells = experiment: in vitro cytotoxicity against B16-F10 murine melanoma cells (neutral red, 72 hours); type: cell-based; settings: for IC50: Mus musculus, read-out: Cytotoxicity vs B16 IC50
Protocol: (§1) BU-3129T (3,7-dihydroxytropolone) and its analogs were tested for in vitro cytotoxicity against logarithmically growing murine melanoma tumor cells in liquid culture. B16-F10 cells (4×10^4 cells) in the enriched MEM (Minimum essential medium (Eagle's)) containing test material solution were planted into wells of 96-well microtiter plates and incubated at 37° C., with 5% CO2 under high humidity for 72 hours. After staining with neutral red, cytotoxicity of test material was determined colorimetrically. The inhibitory effects on macromolecule biosynthesis were examined in cultured L1210 leukemia cells. L1210 cells (5×10^5 cells) were exposed to radioactive precursors (^3 H-thymidine, ^14 C-uridine and ^3 H-leucine) for 60 min after the treatment with test material for 15 min. The incorporated radioactivities into acid-insoluble fractions were measured by using a liquid scintillation counter. The in vivo antitumor activity of BU-3129T was determined in male BDF1 mice against leukemia P388 and melanoma B16. Leukemia P388 and melanoma B 16 were inoculated by the intraperitoneal injection at 10^6 cells and 0.5 ml of a 10% tumor brei per mouse, respectively. Test material was administered to mice intraperitoneally once daily through 1 to 9 days after tumor implantation. Tropolone and mitomycin C were comparatively tested in the experiments.

L1210 leukemia cells = experiment: inhibition of macromolecule biosynthesis in cultured L1210 leukemia cells (incorporation of radioactive precursors); type: cell-based; settings: Mus musculus
Protocol: as §1

[1] = tested on: mammalian malignant tumors; experiment: inhibitory action against mammalian malignant tumors (summary statement); settings: in words
Protocol: as §1

melanoma B16 = experiment: in vivo antitumor activity against melanoma B16 in male BDF1 mice; settings: for antitumor activity against melanoma B16: in words, mice
Protocol: as §1

solubility = type: physicochemical
[2] = in words; Kirst paper; cited from earlier work
leukemia P388 = type: in vivo, mice; settings: for MST / T/C: qd 1→9, ip
Protocol: as §1

[3] = L1210, DNA, 3H-thymidine, 60 min after 15 min treatment, read-out: Inhibition of macromolecule biosynthesis vs L1210 IC50, DNA
[4] = L1210, Protein, 3H-leucine, 60 min after 15 min treatment, read-out: Inhibition of macromolecule biosynthesis vs L1210 IC50, Protein
[5] = L1210, RNA, 14C-uridine, 60 min after 15 min treatment, read-out: Inhibition of macromolecule biosynthesis vs L1210 IC50, RNA
[6] = Exp. 1, 0.16 mg/kg/day, qd 1→9, ip
[7] = Exp. 1, 2.5 mg/kg/day, qd 1→9, ip
[8] = Exp. 1, 0.1 mg/kg/day, qd 1→9, ip
[9] = Exp. 1, 0.3 mg/kg/day, qd 1→9, ip
[10] = Exp. 1, 1.0 mg/kg/day, qd 1→9, ip
[11] = Exp. 2, 1.0 mg/kg/day, qd 1→9, ip
[12] = Exp. 2, 3.0 mg/kg/day, qd 1→9, ip
[13] = Exp. 2, 10 mg/kg/day, qd 1→9, ip
[14] = Exp. 2, 30 mg/kg/day, qd 1→9, ip

Structure (SMILES): O=c1c(O)cccc(O)c1O [BU-3129T, 3,7-dihydroxytropolone]
potency order in the in vitro cytotoxicity test (B16-F10 cells): most potent
IC50 (B16-F10 cells; B16-F10, 72 h): 0.04 µg/mL (≈ 0.26 µM)
times more cytotoxic against B16 melanoma than tropolone and the hydroxytropolones compared (B16-F10 cells; mouse, 4320 min): 10-40 times
IC50 (L1210 leukemia cells; L1210, DNA, RNA and protein together, non-specific, read-out: inhibitory effects on DNA, RNA and protein biosynthesis, IC50 values): 9 to 14 µg/mL (≈ 58.4 to 90.8 µM)
IC50 (L1210 leukemia cells; [3]): 9.4 µg/mL (≈ 61 µM)
IC50 (L1210 leukemia cells; [4]): 11 µg/mL (≈ 71.4 µM)
IC50 (L1210 leukemia cells; [5]): 14 µg/mL (≈ 90.8 µM)
inhibitory action against mammalian malignant tumors [1]: marked inhibitory action
MST (melanoma B16; [6]): 16.0 days
T/C (melanoma B16; [6]): 100%
MST (melanoma B16; Exp. 1, 0.31 mg/kg/day, qd 1→9, ip): 18.0 days
MST (melanoma B16; Exp. 1, 0.63 mg/kg/day, qd 1→9, ip): 23.0 days
MST (melanoma B16; Exp. 1, 1.3 mg/kg/day, qd 1→9, ip): 29.0 days
MST (melanoma B16; [7]): 12.0 days
T/C (melanoma B16; [7]): 75%
toxicity (melanoma B16; Exp. 1, 5.0 mg/kg/day, qd 1→9, ip): tox
antitumor activity against melanoma B16 (melanoma B16; ip): significant antitumor activity
Average weight change on day 5 (melanoma B16; mouse, in vivo, ip, 0.16 mg/kg/day): +0.4 g
Average weight change on day 5 (melanoma B16; mouse, in vivo, ip, 0.31 mg/kg/day): +1.2 g
Average weight change on day 5 (melanoma B16; mouse, in vivo, ip, 0.63 mg/kg/day): +1.0 g
Average weight change on day 5 (melanoma B16; mouse, in vivo, ip, 1.3 mg/kg/day): +0.4 g
Average weight change on day 5 (melanoma B16; mouse, in vivo, ip, 2.5 mg/kg/day): -0.8 g
solubility (solubility; dimethylformamide): readily soluble
solubility (solubility; dimethylsulfoxide): readily soluble
solubility (solubility; ethanol): slightly soluble
solubility (solubility; methanol): slightly soluble
solubility (solubility; other organic solvents): practically insoluble
solubility (solubility; water): slightly soluble
antimicrobial activity [2]: possesses antimicrobial activity
MST (leukemia P388; 0.16 mg/kg/day): 11.0 days
T/C (leukemia P388; 0.16 mg/kg/day): 105%
MST (leukemia P388; 0.31 mg/kg/day): 11.0 days
T/C (leukemia P388; 0.31 mg/kg/day): 105%
MST (leukemia P388; 0.63 mg/kg/day): 10.0 days
T/C (leukemia P388; 0.63 mg/kg/day): 95%
MST (leukemia P388; 1.3 mg/kg/day): 11.0 days
T/C (leukemia P388; 1.3 mg/kg/day): 105%
MST (leukemia P388; 2.5 mg/kg/day): 10.0 days
T/C (leukemia P388; 2.5 mg/kg/day): 95%
antitumor activity against leukemia P388 (leukemia P388; in words, mice, ip): no activity

Structure (SMILES): CO[C@@]12[C@H](COC(N)=O)C3=C(C(=O)C(C)=C(N)C3=O)N1C[C@@H]1N[C@@H]12 [Mitomycin C]
IC50 (B16-F10 cells; B16-F10, 72 h): 2 µg/mL (≈ 5.98 µM)
Average weight change on day 5 (melanoma B16; [8]): +1.0 g
MST (melanoma B16; [8]): 16.0 days
T/C (melanoma B16; [8]): 100%
Average weight change on day 5 (melanoma B16; [9]): +0.4 g
MST (melanoma B16; [9]): 22.0 days
Average weight change on day 5 (melanoma B16; [10]): +0.6 g
MST (melanoma B16; [10]): 27.0 days
MST (leukemia P388; 0.08 mg/kg/day): 12.0 days
T/C (leukemia P388; 0.08 mg/kg/day): 114%
MST (leukemia P388; 0.16 mg/kg/day): 15.0 days
MST (leukemia P388; 0.31 mg/kg/day): 16.0 days
MST (leukemia P388; 1.3 mg/kg/day): 21.0 days

Structure (SMILES): O=c1cccccc1O [Tropolone]
IC50 (B16-F10 cells; B16-F10 cells, 72 hours): 1.8 µg/mL (≈ 14.7 µM)
potency order in the in vitro cytotoxicity test (B16-F10 cells; in words): follow by 7-hydroxytropolone, 4,7-dihydroxytropolone, tropolone and 5-hydroxytropolone
IC50 (L1210 leukemia cells; L1210, read-out: Inhibition of macromolecule biosynthesis vs L1210 IC50, DNA): 2.2 µg/mL (≈ 18 µM)
IC50 (L1210 leukemia cells; L1210, read-out: Inhibition of macromolecule biosynthesis vs L1210 IC50, Protein): 9.9 µg/mL (≈ 81.1 µM)
IC50 (L1210 leukemia cells; L1210, read-out: Inhibition of macromolecule biosynthesis vs L1210 IC50, RNA): 20 µg/mL (≈ 164 µM)
Average weight change on day 5 (melanoma B16; [11]): +2.3 g
MST (melanoma B16; [11]): 19.0 days
T/C (melanoma B16; [11]): 112%
Average weight change on day 5 (melanoma B16; [12]): +2.5 g
MST (melanoma B16; [12]): 17.5 days
T/C (melanoma B16; [12]): 103%
Average weight change on day 5 (melanoma B16; [13]): +3.3 g
MST (melanoma B16; [13]): 18.0 days
T/C (melanoma B16; [13]): 106%
Average weight change on day 5 (melanoma B16; [14]): +2.0 g
MST (melanoma B16; [14]): 18.0 days
T/C (melanoma B16; [14]): 106%
antitumor activity against melanoma B16 (melanoma B16; ip): did not show any activity

More lines, main results first:

IC50 (L1210 leukemia cells; [3]): 39 µg/mL (≈ 253 µM)
IC50 (L1210 leukemia cells; [4]): > 100 µg/mL
IC50 (L1210 leukemia cells; [5]): > 100 µg/mL
Structure (SMILES): O=c1c(O)ccc(O)cc1O [4,7-dihydroxytropolone]
potency order in the in vitro cytotoxicity test (B16-F10 cells): follow by 7-hydroxytropolone, 4,7-dihydroxytropolone, tropolone and 5-hydroxytropolone
IC50 (B16-F10 cells; B16-F10, 72 h): 0.38 µg/mL (≈ 2.47 µM)

IC50 (L1210 leukemia cells; [3]): > 100 µg/mL
IC50 (L1210 leukemia cells; [4]): 100 µg/mL (≈ 724 µM)
IC50 (L1210 leukemia cells; [5]): > 100 µg/mL
Structure (SMILES): O=c1ccc(O)ccc1O [5-hydroxytropolone]
potency order in the in vitro cytotoxicity test (B16-F10 cells): follow by 7-hydroxytropolone, 4,7-dihydroxytropolone, tropolone and 5-hydroxytropolone
IC50 (B16-F10 cells; B16-F10, 72 h): 2.4 µg/mL (≈ 17.4 µM)

IC50 (L1210 leukemia cells; [3]): 21 µg/mL (≈ 152 µM)
IC50 (L1210 leukemia cells; [4]): > 100 µg/mL
IC50 (L1210 leukemia cells; [5]): 41 µg/mL (≈ 297 µM)
Structure (SMILES): O=c1c(O)ccccc1O [7-hydroxytropolone]
potency order in the in vitro cytotoxicity test (B16-F10 cells): follow by 7-hydroxytropolone, 4,7-dihydroxytropolone, tropolone and 5-hydroxytropolone
IC50 (B16-F10 cells; B16-F10, 72 h): 0.3 µg/mL (≈ 2.17 µM)
